In patent publication US8420654B2 (Eli Lilly and Company, priority 2008, dated 2013):

Assays:
CYP3A = test: Human CYP fingerprinting, ketoconazole inhibitor; format: in vitro ADME; conditions: 4 μM, human liver microsomes, 30 min, ketoconazole 10 μM
Method: (§1) CYP fingerprinting is well established technique and is used as an indication of potential risk of drug-drug interactions in the pharmaceutical sciences. Compounds of the present invention may be assayed by well known methods, essentially as follows: Compounds are incubated at 37° C. at a final concentration of 4 μM with pooled, mixed gender, human liver microsomes and 1 mM NADPH ([…]) (final conc.) for 0 and 30 min. without any CYP inhibitor and with each CYP inhibitor in separate incubations for 30 min. Each inhibitor is specific for an individual cytochrome P450. The specific inhibitors used for CYPs 2C9, 2D6 and 3A were sulfaphenazole, quinidine and ketoconazole, respectively. Ketoconazole (CYP3A) is made up at 25 mM in DMSO and then diluted in buffer to a final concetration of 10 μM. Quinidine (CYP2D6) is made up at 5 mM in 50/50 acetonitrile/water and then diluted in buffer to a final concetration of 10 μM. Sulfaphenazole (CYP2C9) is made up at 100 mM in DMSO and then diluted in buffer to a final concetration of 5 μM. Samples are analyzed by LC-MS in positive or negative electrospray mode using a Waters Acquity Ultra Performance LC coupled to a MicroMass Q-T of-2 mass spectrometer.
(§2) Data are analyzed using MetaboLynx™ version 4.1. With inhibitor present, a reduction in metabolite peak area of less than 30% (relative to the uninhibited control incubation) receives a designation of low risk of Drug Drug Interaction (DDI), a reduction in peak area between 30% and 70% receives a moderate risk of DDI and a reduction of more than 70% receives a high risk of DDI.

Rat oral bioavailability = format: in vivo; conditions: Sprague-Dawley, plasma, fasted male SD rats, IV 0.25 mg/kg, PO 1 mg/kg, based on AUC0-24hr, mean s.d., n=3
Method: Methods for accessing bioavailability are well appreciated in the art. One such reference is Medicinal Research Reviews Vol 21 No. 5 382-396 (2001). Bioavailability of compounds may be estimated essentially as follows.
Cohorts of three or four 250-450 gram male Sprague-Dawley rats or approximately 10 kg Beagle dogs (female or male) are used. […] Dogs are administered i.v. by cannulated cephalic vein and blood collections are by jugular vein. Animals are first dosed at 0.25 mg/kg i.v. and blood samples (0.2 mL) are then collected using EDTA as an anticoagulant at 0.0830, 0.25, 0.50, 1, 2, 4, 8, 12, 24, 48, 72, 96, and 120 hours. Next after at least two days and after 18-24 hours fasting, the animals are dosed at 1.0 mg/kg by oral gavage. During the course of a study the total of blood (ml) collected is not to exceed 1% of total body weight in grams. Should larger blood volumes be required, the sampled blood volume is replace with heparinized whole blood from a donor animal. When using a cross-over study design, rats receive a volume of heparinized whole blood following the final sample of each study day approximately equal to that removed during study.
Compound plasma concentrations are measured by LC/MS/MS assays. Data are then analyzed using standard non-compartmental pharmacokinetic analysis. […]

CYP2D6 = molecular target: T1, CYP2D6 (Homo sapiens, UniProt P10635); test: Human CYP fingerprinting, quinidine inhibitor; format: in vitro ADME; conditions: 4 μM, human liver microsomes, 30 min, quinidine 10 μM
T1 construct: pooled, mixed gender, human liver microsomes; from tissue; host or cells: pooled, mixed gender human liver microsomes
T1 sequence (P10635 whole entry): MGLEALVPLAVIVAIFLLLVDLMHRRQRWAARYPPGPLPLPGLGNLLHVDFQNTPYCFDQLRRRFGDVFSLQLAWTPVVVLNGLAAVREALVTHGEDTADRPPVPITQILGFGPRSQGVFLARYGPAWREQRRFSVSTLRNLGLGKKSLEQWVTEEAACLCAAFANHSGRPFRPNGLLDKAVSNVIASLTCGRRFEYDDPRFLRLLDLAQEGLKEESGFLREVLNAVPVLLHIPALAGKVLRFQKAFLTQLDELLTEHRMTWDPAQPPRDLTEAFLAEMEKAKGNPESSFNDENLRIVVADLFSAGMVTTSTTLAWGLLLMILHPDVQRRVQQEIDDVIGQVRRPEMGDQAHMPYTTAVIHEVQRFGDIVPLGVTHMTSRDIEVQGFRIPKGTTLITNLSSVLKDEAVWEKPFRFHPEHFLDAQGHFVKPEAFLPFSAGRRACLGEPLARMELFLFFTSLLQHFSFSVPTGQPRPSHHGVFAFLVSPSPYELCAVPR
Method: as §1, §2

## CC(C)(N[C@@H]1C[C@H](c2cccc(OC(F)(F)F)c2)N(c2ccc(C(F)(F)F)cc2)C1=O)c1ccnc(C(F)(F)F)n1.Cc1ccc(S(=O)(=O)O)cc1 [Example 5, (3R,5R)-3-[1-Methyl-1-(2-trifluoromethyl-pyrimidin-4-yl)-ethylamino]-5-(3-trifluoromethoxy-phenyl)-1-(4-trifluoromethyl-phenyl)-pyrrolidin-2-one tosylate]
CYP3A
  Risk of Drug Drug Interaction (DDI) CYP3A: low (a reduction in metabolite peak area of less than 30% (relative to the uninhibited control incubation) receives a designation of low risk of Drug Drug Interaction (DDI))
Rat oral bioavailability
  bioavailability: 51%
CYP2D6
  Risk of Drug Drug Interaction (DDI) CYP2D6: low (a reduction in metabolite peak area of less than 30% (relative to the uninhibited control incubation) receives a designation of low risk of Drug Drug Interaction (DDI))
